In PubChem BioAssay AID1259407 (Chemical Carcinogenesis Research Information System (CCRIS), 2018) one finds mutagenic call data, which are given here for eight compounds.

Molecules are shown by their SMILES. Active and inactive are the calls of the source. The rule behind the calls is not given here.

The series deals with CCRIS mutagenicity, Ames/micronucleus/aberration tests. The experiment in a line: CCRIS mutagenicity studies.
Setting [1] is: Test System: AMES SALMONELLA TYPHIMURIUM, Strain/Indicator: TA100, Metabolic Activation: RAT, LIVER, S-9, AROCLOR 1254, Method: STANDARD PLATE.
Setting [2] is: Test System: AMES SALMONELLA TYPHIMURIUM, Strain/Indicator: TA97, Metabolic Activation: NONE, Method: PREINCUBATION
Where [3] appears, read: Test System: AMES SALMONELLA TYPHIMURIUM, Strain/Indicator: TA98, Metabolic Activation: NONE, Method: PREINCUBATION
The mark [4] stands for this setting: Test System: AMES SALMONELLA TYPHIMURIUM, Strain/Indicator: TA100, Metabolic Activation: NONE, Method: PREINCUBATION
Setting [5] is: Test System: AMES SALMONELLA TYPHIMURIUM, Strain/Indicator: TA1535, Metabolic Activation: NONE, Method: PREINCUBATION
[6] abbreviates: Test System: AMES SALMONELLA TYPHIMURIUM, Strain/Indicator: TA104, Metabolic Activation: NONE, Method: PREINCUBATION
Where [7] appears, read: Test System: AMES SALMONELLA TYPHIMURIUM, Strain/Indicator: TA98, Metabolic Activation: NONE, Method: STANDARD PLATE.
Setting [8] is: Test System: AMES SALMONELLA TYPHIMURIUM, Strain/Indicator: TA100, Metabolic Activation: NONE, Method: STANDARD PLATE.

`OC1C=Cc2cc3c(cc2C1O)-c1cccc2cccc-3c12` (stereo not drawn): the mutagenic call under setting [1] is “active; positive”.

On to `C=C(CC)C(=O)c1ccc(OCC(=O)O)c(Cl)c1Cl`, for which the mutagenic call is, setting by setting: (Test System: AMES SALMONELLA TYPHIMURIUM, Strain/Indicator: TA97, Metabolic Activation: HAMSTER, LIVER, S-9, AROCLOR 1254 (10 OR 30%), Method: PREINCUBATION) “inactive; negative”; under setting [2], “inactive; negative”; (Test System: AMES SALMONELLA TYPHIMURIUM, Strain/Indicator: TA97, Metabolic Activation: RAT, LIVER, S-9, AROCLOR 1254 (10 OR 30%), Method: PREINCUBATION) “inactive; negative”; (Test System: AMES SALMONELLA TYPHIMURIUM, Strain/Indicator: TA98, Metabolic Activation: HAMSTER, LIVER, S-9, AROCLOR 1254 (10 OR 30%), Method: PREINCUBATION) “inactive; negative”; under setting [3], “inactive; negative”; (Test System: AMES SALMONELLA TYPHIMURIUM, Strain/Indicator: TA98, Metabolic Activation: RAT, LIVER, S-9, AROCLOR 1254 (10 OR 30%), Method: PREINCUBATION) “inactive; negative”. For the same compound, the mutagenic call reads like this: (Test System: AMES SALMONELLA TYPHIMURIUM, Strain/Indicator: TA100, Metabolic Activation: HAMSTER, LIVER, S-9, AROCLOR 1254 (10 OR 30%), Method: PREINCUBATION) “inactive; negative”; under setting [4], “inactive; negative”; (Test System: AMES SALMONELLA TYPHIMURIUM, Strain/Indicator: TA100, Metabolic Activation: RAT, LIVER, S-9, AROCLOR 1254 (10 OR 30%), Method: PREINCUBATION) “inactive; negative”; (Test System: AMES SALMONELLA TYPHIMURIUM, Strain/Indicator: TA1535, Metabolic Activation: HAMSTER, LIVER, S-9, AROCLOR 1254 (10 OR 30%), Method: PREINCUBATION) “inactive; negative”; under setting [5], “inactive; negative”; (Test System: AMES SALMONELLA TYPHIMURIUM, Strain/Indicator: TA1535, Metabolic Activation: RAT, LIVER, S-9, AROCLOR 1254 (10 OR 30%), Method: PREINCUBATION) “inactive; negative”.

As to `NCCCN1CCN(CCCN)CC1`, the mutagenic call is, setting by setting: under setting [3], “inactive; negative”; (Test System: AMES SALMONELLA TYPHIMURIUM, Strain/Indicator: TA98, Metabolic Activation: RAT LIVER S-9, PHENOBARBITAL AND BETA-NAPHTHOFLAVONE, Method: PREINCUBATION) “inactive; negative”; under setting [4], “inactive; negative”; (Test System: AMES SALMONELLA TYPHIMURIUM, Strain/Indicator: TA100, Metabolic Activation: RAT LIVER S-9, PHENOBARBITAL AND BETA-NAPHTHOFLAVONE, Method: PREINCUBATION) “inactive; negative”; (Test System: AMES SALMONELLA TYPHIMURIUM, Strain/Indicator: TA102, Metabolic Activation: NONE, Method: PREINCUBATION) “inactive; negative”; (Test System: AMES SALMONELLA TYPHIMURIUM, Strain/Indicator: TA102, Metabolic Activation: RAT LIVER S-9, PHENOBARBITAL AND BETA-NAPHTHOFLAVONE, Method: PREINCUBATION) “inactive; negative”. For the same compound, the mutagenic call runs as follows: under setting [6], “inactive; negative”; (Test System: AMES SALMONELLA TYPHIMURIUM, Strain/Indicator: TA104, Metabolic Activation: RAT LIVER S-9, PHENOBARBITAL AND BETA-NAPHTHOFLAVONE, Method: PREINCUBATION) “inactive; negative”; under setting [5], “inactive; negative”; (Test System: AMES SALMONELLA TYPHIMURIUM, Strain/Indicator: TA1535, Metabolic Activation: RAT LIVER S-9, PHENOBARBITAL AND BETA-NAPHTHOFLAVONE, Method: PREINCUBATION) “inactive; negative”; (Test System: AMES SALMONELLA TYPHIMURIUM, Strain/Indicator: TA1537, Metabolic Activation: NONE, Method: PREINCUBATION) “inactive; negative”; (Test System: AMES SALMONELLA TYPHIMURIUM, Strain/Indicator: TA1537, Metabolic Activation: RAT LIVER S-9, PHENOBARBITAL AND BETA-NAPHTHOFLAVONE, Method: PREINCUBATION) “inactive; negative”. In addition, the mutagenic call (Test System: E.COLI, Strain/Indicator: WP2UVRA/PKM101, Metabolic Activation: NONE, Method: PREINCUBATION) is “inactive; negative”; the mutagenic call (Test System: E.COLI, Strain/Indicator: WP2UVRA/PKM101, Metabolic Activation: RAT LIVER S-9, PHENOBARBITAL AND BETA-NAPHTHOFLAVONE, Method: PREINCUBATION) was “inactive; negative”; the mutagenic call (Test System: E.COLI, Strain/Indicator: WP2UVRA, Metabolic Activation: NONE, Method: PREINCUBATION) was “inactive; negative”; the mutagenic call (Test System: E.COLI, Strain/Indicator: WP2UVRA, Metabolic Activation: RAT LIVER S-9, PHENOBARBITAL AND BETA-NAPHTHOFLAVONE, Method: PREINCUBATION) is “inactive; negative”.

On to `O=[N+]([O-])c1ccc2ccc3c4c(cc5ccc1c2c53)CCC=C4`, for which the mutagenic call (Test System: AMES SALMONELLA TYPHIMURIUM, Strain/Indicator: TA98(1,8-DNP6), Metabolic Activation: NONE, Method: STANDARD PLATE) was “active; positive”; the mutagenic call (Test System: AMES SALMONELLA TYPHIMURIUM, Strain/Indicator: TA98(1,8-DNP6), Metabolic Activation: RAT, LIVER, S-9, AROCLOR 1254, Method: STANDARD PLATE) was “active; positive”; the mutagenic call (Test System: AMES SALMONELLA TYPHIMURIUM, Strain/Indicator: TA98(NR), Metabolic Activation: NONE, Method: STANDARD PLATE) is “active; positive”; the mutagenic call (Test System: AMES SALMONELLA TYPHIMURIUM, Strain/Indicator: TA98(NR), Metabolic Activation: RAT, LIVER, S-9, AROCLOR 1254, Method: STANDARD PLATE) was “active; positive”; the mutagenic call under setting [7] is “active; positive”; the mutagenic call (Test System: AMES SALMONELLA TYPHIMURIUM, Strain/Indicator: TA98, Metabolic Activation: RAT, LIVER, S-9, AROCLOR 1254, Method: STANDARD PLATE) is “active; positive”. Further, the mutagenic call reads like this: under setting [8], “inactive; negative”; under setting [1], “active; positive”.

Consider `O=C1c2ccccc2-c2c1c1ccccc1c(=O)n2CCNCCO`, for which the mutagenic call was “inactive; negative” (Test System: AMES SALMONELLA TYPHIMURIUM, Strain/Indicator: TA97, Metabolic Activation: NONE, Method: STANDARD PLATE); “inactive; negative” (Test System: AMES SALMONELLA TYPHIMURIUM, Strain/Indicator: TA97, Metabolic Activation: RAT, LIVER, S-9, PHENOBARBITAL AND ALPHA-NAPHTHOFLAVONE, Method: STANDARD PLATE); “inactive; negative” under setting [7]; “inactive; negative” (Test System: AMES SALMONELLA TYPHIMURIUM, Strain/Indicator: TA98, Metabolic Activation: RAT, LIVER, S-9, PHENOBARBITAL AND ALPHA-NAPHTHOFLAVONE, Method: STANDARD PLATE); “inactive; negative” under setting [8]; “inactive; negative” (Test System: AMES SALMONELLA TYPHIMURIUM, Strain/Indicator: TA100, Metabolic Activation: RAT, LIVER, S-9, PHENOBARBITAL AND ALPHA-NAPHTHOFLAVONE, Method: STANDARD PLATE). Moreover, the mutagenic call reads like this: (Test System: AMES SALMONELLA TYPHIMURIUM, Strain/Indicator: TA1535, Metabolic Activation: NONE, Method: STANDARD PLATE) “inactive; negative”; (Test System: AMES SALMONELLA TYPHIMURIUM, Strain/Indicator: TA1535, Metabolic Activation: RAT, LIVER, S-9, PHENOBARBITAL AND ALPHA-NAPHTHOFLAVONE, Method: STANDARD PLATE) “inactive; negative”.

For the compound `Fc1cccc2c1ccc1cccnc12`, where the note is “Test System: AMES SALMONELLA TYPHIMURIUM, Strain/Indicator: TA100, Metabolic Activation: RAT, LIVER, S-9, PHENOBARBITAL AND 5,6-BENZOFLAVONE, Method: PREINCUBATION”, the mutagenic call is “active; positive”.

On to `[Cl][Cu][Cl]`, for which the mutagenic call (Test System: E. COLI, Strain/Indicator: WP2 UVRA, Metabolic Activation: NONE, Method: SPOT TEST) is “active; positive” and the mutagenic call (Test System: E. COLI, Strain/Indicator: WP2 UVRA, Metabolic Activation: NONE, Method: STANDARD PLATE) is “active; positive”.

Take `O[C@@H]1[C@H]2O[C@H]2c2c(ccc3c4ccccc4c4ccccc4c23)[C@H]1O`: the mutagenic call was “active; positive” under setting [2]; “active; positive” under setting [3]; “active; positive” under setting [4]; “active; positive” under setting [6]; “active; positive” (Test System: CHINESE HAMSTER V-79, Strain/Indicator: V-79/6-THIOGUANINE, Metabolic Activation: NONE).
